Assay results as given in article PMC7407272, “Induction of Lysosome Membrane Permeabilization as a Therapeutic Strategy to Target Pancreatic Cancer Stem Cells” (Cancers, 2020).

Tests used:
Assay in all cases: KINOMEscan
Format in all cases: binding
Details in all cases: read-out: % Ctrl
PRKCE = target: T1, PRKCE (Homo sapiens, UniProt Q02156)
T1 construct: purchased DiscoveRx KINOMEscan

PAK1 = target: T2, PAK1 (Homo sapiens, UniProt Q13153)
T2 construct: purchased DiscoveRx KINOMEscan

ACVR1B = target: T3, ACVR1B (Homo sapiens, UniProt P36896)
T3 construct: purchased DiscoveRx KINOMEscan

ROCK1 = target: T4, ROCK1 (Homo sapiens, UniProt Q13464)
T4 construct: purchased DiscoveRx KINOMEscan

BIKE = target: T5, BIKE (Homo sapiens, UniProt Q9NSY1)
T5 construct: purchased DiscoveRx KINOMEscan

KIT(V559D) = target: T6, KIT(V559D) (Homo sapiens, UniProt P10721, V559D)
T6 construct: purchased DiscoveRx KINOMEscan

CSF1R = target: T7, CSF1R (Homo sapiens, UniProt P07333)
T7 construct: purchased DiscoveRx KINOMEscan

STK16 = target: T8, STK16 (Homo sapiens, UniProt O75716)
T8 construct: purchased DiscoveRx KINOMEscan

CDK4-cyclinD3 = target: T9, CDK4-cyclinD3 (Homo sapiens, UniProt P11802)
T9 construct: purchased DiscoveRx KINOMEscan

JAK1(JH2D.-pseudoK.) = target: T10, JAK1(JH2D.-pseudoK.) (Homo sapiens, UniProt P23458)
T10 construct: JAK1(JH2D.-pseudoK.); purchased DiscoveRx KINOMEscan

RIOK2 = target: T11, RIOK2 (Homo sapiens, UniProt Q9BVS4)
T11 construct: purchased DiscoveRx KINOMEscan

PRKCH = target: T12, PRKCH (Homo sapiens, UniProt P24723)
T12 construct: purchased DiscoveRx KINOMEscan

ADCK3 = target: T13, ADCK3 (Homo sapiens, UniProt Q8NI60)
T13 construct: purchased DiscoveRx KINOMEscan

FLT3-autoi. = target: T14, FLT3-autoi. (Homo sapiens, UniProt P36888)
T14 construct: purchased DiscoveRx KINOMEscan

AURKC = target: T15, AURKC (Homo sapiens, UniProt Q9UQB9)
T15 construct: purchased DiscoveRx KINOMEscan

ICK = target: T16, ICK (Homo sapiens, UniProt Q9UPZ9)
T16 construct: purchased DiscoveRx KINOMEscan

CAMK2A = target: T17, CAMK2A (Homo sapiens, UniProt Q9UQM7)
T17 construct: purchased DiscoveRx KINOMEscan

RSK1(KD2-C-t.) = target: T18, RSK1(KD2-C-t.) (Homo sapiens, UniProt Q15418)
T18 construct: RSK1(KD2-C-t.); purchased DiscoveRx KINOMEscan

MUSK = target: T19, MUSK (Homo sapiens, UniProt O15146)
T19 construct: purchased DiscoveRx KINOMEscan

TBK1 = target: T20, TBK1 (Homo sapiens, UniProt Q9UHD2)
T20 construct: purchased DiscoveRx KINOMEscan

ERK2 = target: T21, ERK2 (Homo sapiens, UniProt P28482)
T21 construct: purchased DiscoveRx KINOMEscan

FLT4 = target: T22, FLT4 (Homo sapiens, UniProt P35916)
T22 construct: purchased DiscoveRx KINOMEscan

SRC = target: T23, SRC (Homo sapiens, UniProt P12931)
T23 construct: purchased DiscoveRx KINOMEscan

ERK5 = target: T24, ERK5 (Homo sapiens, UniProt Q13164)
T24 construct: purchased DiscoveRx KINOMEscan

WNK1 = target: T25, WNK1 (Homo sapiens, UniProt Q9H4A3)
T25 construct: purchased DiscoveRx KINOMEscan

GAK = target: T26, GAK (Homo sapiens, UniProt O14976)
T26 construct: purchased DiscoveRx KINOMEscan

PIK3CA(H1047Y) = target: T27, PIK3CA(H1047Y) (Homo sapiens, UniProt P42336, H1047Y)
T27 construct: purchased DiscoveRx KINOMEscan

EGFR(S752-I759del) = target: T28, EGFR(S752-I759del) (Homo sapiens, UniProt P00533, DEL752-759)
T28 construct: purchased DiscoveRx KINOMEscan

YES = target: T29, YES (Homo sapiens, UniProt P07947)
T29 construct: purchased DiscoveRx KINOMEscan

PIK3CA(E545K) = target: T30, PIK3CA(E545K) (Homo sapiens, UniProt P42336, E545K)
T30 construct: purchased DiscoveRx KINOMEscan

PKAC-beta = target: T31, PKAC-beta (Homo sapiens, UniProt P22694)
T31 construct: purchased DiscoveRx KINOMEscan

KIT(D816V) = target: T32, KIT(D816V) (Homo sapiens, UniProt P10721, D816V)
T32 construct: purchased DiscoveRx KINOMEscan
T32 sequence (P10721 26-976 D816V): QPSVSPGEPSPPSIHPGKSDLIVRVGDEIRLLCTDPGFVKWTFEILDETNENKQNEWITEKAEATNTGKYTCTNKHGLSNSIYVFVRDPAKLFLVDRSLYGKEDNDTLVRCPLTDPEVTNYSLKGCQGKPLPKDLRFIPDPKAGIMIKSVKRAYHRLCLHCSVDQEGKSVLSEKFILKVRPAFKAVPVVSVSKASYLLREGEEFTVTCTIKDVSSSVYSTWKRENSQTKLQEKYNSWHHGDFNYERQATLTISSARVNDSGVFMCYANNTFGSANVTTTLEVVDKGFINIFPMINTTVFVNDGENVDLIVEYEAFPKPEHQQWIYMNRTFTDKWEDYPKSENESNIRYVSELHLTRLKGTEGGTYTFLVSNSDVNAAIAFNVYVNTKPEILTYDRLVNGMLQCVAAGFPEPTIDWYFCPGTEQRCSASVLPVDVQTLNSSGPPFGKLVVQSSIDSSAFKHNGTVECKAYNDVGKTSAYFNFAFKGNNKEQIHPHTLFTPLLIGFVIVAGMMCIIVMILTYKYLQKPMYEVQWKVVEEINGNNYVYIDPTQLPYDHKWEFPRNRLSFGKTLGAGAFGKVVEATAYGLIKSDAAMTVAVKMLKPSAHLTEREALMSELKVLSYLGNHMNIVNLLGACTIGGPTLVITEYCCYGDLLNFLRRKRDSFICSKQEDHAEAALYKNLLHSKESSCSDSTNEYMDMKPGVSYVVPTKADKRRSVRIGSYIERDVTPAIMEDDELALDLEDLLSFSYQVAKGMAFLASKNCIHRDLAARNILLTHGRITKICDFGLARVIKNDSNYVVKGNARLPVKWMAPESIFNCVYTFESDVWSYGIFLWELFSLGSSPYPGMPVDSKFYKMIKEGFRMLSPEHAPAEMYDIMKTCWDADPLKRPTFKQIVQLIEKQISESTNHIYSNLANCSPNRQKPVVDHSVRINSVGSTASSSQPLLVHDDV

T14 sequence (P36888 27-993): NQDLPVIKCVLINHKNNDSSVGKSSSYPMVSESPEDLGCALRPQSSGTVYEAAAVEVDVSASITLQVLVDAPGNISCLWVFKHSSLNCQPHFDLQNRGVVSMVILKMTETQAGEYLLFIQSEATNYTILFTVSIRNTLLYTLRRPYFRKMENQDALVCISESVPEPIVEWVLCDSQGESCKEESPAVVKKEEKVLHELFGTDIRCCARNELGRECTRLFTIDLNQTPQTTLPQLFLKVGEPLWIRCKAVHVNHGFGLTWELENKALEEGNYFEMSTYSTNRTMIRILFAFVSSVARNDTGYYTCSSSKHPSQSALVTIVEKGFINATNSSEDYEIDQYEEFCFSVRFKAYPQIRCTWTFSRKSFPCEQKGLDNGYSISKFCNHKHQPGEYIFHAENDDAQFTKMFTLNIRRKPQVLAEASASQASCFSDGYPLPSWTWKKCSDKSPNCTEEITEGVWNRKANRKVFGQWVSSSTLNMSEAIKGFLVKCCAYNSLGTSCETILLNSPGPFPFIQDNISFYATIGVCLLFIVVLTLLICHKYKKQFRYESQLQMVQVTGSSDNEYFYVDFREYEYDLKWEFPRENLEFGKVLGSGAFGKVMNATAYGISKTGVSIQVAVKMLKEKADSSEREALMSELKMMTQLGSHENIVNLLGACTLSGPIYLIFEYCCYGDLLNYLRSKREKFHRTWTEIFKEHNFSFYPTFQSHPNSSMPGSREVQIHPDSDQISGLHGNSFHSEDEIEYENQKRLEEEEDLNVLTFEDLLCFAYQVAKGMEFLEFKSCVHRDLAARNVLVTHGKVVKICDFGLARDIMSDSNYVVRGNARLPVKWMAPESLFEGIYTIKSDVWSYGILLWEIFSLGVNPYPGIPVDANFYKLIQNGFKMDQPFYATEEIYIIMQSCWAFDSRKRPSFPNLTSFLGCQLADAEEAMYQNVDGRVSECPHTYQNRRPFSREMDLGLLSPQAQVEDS
T27 sequence (P42336 whole entry H1047Y): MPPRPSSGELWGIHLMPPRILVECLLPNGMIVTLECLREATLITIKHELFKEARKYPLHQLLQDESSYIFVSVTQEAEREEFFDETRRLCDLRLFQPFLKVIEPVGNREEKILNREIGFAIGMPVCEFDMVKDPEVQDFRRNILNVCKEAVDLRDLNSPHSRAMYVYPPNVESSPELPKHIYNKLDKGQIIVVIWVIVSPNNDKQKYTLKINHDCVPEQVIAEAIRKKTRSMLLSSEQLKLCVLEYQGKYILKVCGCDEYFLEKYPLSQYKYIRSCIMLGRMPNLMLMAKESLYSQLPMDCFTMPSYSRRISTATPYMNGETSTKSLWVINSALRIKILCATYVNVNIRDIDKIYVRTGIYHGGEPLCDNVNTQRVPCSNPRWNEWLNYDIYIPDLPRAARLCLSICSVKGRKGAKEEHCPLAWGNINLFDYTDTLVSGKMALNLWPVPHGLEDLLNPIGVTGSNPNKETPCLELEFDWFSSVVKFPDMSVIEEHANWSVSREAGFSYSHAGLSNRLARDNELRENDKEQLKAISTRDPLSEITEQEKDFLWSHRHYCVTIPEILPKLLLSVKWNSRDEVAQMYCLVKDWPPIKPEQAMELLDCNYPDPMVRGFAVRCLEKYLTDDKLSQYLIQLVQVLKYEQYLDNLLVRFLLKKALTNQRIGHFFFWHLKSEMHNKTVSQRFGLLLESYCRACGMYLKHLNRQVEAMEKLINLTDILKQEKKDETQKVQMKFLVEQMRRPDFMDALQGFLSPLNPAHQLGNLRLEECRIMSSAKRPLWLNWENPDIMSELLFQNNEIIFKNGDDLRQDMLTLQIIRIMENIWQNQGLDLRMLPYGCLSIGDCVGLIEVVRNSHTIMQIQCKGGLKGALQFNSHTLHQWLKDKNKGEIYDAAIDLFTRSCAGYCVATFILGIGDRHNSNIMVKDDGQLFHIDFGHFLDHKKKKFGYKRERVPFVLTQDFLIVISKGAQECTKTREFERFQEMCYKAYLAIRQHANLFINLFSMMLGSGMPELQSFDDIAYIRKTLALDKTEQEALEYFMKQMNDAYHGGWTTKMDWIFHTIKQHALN
T4 sequence (Q13464 whole entry): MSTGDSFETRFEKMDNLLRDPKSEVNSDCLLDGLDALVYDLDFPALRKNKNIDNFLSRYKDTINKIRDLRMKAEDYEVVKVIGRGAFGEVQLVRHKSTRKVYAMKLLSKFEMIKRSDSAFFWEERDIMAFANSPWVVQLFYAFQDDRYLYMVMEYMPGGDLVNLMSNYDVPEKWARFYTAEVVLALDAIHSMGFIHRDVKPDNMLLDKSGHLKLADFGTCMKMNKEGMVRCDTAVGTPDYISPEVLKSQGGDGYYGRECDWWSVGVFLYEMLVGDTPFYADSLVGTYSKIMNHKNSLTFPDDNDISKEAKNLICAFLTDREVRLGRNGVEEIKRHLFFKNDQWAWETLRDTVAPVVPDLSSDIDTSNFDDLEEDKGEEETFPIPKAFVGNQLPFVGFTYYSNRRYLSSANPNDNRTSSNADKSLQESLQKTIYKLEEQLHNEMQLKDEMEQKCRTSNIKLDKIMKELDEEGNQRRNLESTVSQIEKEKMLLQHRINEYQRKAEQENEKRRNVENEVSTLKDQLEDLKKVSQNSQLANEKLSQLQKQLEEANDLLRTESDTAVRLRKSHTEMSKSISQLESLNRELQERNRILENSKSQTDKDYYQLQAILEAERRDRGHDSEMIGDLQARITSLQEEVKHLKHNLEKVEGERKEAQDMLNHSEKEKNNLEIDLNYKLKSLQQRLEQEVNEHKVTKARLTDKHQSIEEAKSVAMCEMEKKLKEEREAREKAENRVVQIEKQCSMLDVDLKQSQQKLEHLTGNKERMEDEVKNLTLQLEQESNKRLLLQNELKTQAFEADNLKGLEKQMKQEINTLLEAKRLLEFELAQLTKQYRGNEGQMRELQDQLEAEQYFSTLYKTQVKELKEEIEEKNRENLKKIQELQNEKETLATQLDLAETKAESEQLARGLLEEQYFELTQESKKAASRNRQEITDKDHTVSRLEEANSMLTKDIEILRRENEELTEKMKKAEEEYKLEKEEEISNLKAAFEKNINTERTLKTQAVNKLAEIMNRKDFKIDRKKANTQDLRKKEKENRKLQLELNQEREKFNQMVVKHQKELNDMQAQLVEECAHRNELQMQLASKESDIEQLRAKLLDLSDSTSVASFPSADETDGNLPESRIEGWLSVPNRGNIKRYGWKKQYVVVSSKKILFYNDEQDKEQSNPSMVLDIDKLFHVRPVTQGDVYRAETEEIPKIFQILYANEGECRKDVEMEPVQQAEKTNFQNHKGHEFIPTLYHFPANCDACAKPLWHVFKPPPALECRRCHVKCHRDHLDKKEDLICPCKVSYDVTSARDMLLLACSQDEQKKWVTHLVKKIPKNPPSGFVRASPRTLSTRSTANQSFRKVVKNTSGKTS
T16 sequence (Q9UPZ9 whole entry): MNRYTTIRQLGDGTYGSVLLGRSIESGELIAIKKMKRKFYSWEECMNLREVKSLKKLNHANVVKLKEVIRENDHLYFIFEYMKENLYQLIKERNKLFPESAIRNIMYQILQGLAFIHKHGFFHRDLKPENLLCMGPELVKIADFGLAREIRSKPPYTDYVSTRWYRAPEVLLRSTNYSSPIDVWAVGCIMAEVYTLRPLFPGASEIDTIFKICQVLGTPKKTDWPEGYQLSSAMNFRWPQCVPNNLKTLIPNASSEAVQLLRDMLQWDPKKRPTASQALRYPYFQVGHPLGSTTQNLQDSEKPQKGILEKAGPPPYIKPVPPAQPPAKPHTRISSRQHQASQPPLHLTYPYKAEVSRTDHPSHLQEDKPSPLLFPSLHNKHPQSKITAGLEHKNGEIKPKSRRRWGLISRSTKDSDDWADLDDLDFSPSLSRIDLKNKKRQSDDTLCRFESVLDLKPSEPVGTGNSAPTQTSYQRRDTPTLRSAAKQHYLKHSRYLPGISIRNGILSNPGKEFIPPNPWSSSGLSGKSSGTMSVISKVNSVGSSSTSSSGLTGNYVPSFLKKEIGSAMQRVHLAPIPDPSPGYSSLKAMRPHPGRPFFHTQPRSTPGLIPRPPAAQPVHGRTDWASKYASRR
T30 sequence (P42336 whole entry E545K): as the sequence (P42336 whole entry H1047Y) above, with E545K, Y1047H counted along it
T6 sequence (P10721 26-976 V559D): as the sequence (P10721 26-976 D816V) above, with V534D, V791D counted along it

CN1CCC(CNc2ccc3ncc(C(=O)Nc4cccc(OC(F)(F)F)c4)n3n2)CC1 [Cpd 2]
remaining binding at 1 µM (PRKCE): 70% | remaining binding at 1 µM (PAK1): 100% | remaining binding at 1 µM (ACVR1B): 97% | remaining binding at 1 µM (ROCK1): 50% | remaining binding at 1 µM (BIKE): 83% | remaining binding at 1 µM (KIT(V559D)): 95% | remaining binding at 1 µM (CSF1R): 100% | remaining binding at 1 µM (STK16): 96% | remaining binding at 1 µM (CDK4-cyclinD3): 100% | remaining binding at 1 µM (JAK1(JH2D.-pseudoK.)): 100% | remaining binding at 1 µM (RIOK2): 99% | remaining binding at 1 µM (PRKCH): 99% | remaining binding at 1 µM (ADCK3): 100% | remaining binding at 1 µM (FLT3-autoi.): 82% | remaining binding at 1 µM (AURKC): 95% | remaining binding at 1 µM (ICK): 93% | remaining binding at 1 µM (CAMK2A): 82% | remaining binding at 1 µM (RSK1(KD2-C-t.)): 89% | remaining binding at 1 µM (MUSK): 99% | remaining binding at 1 µM (TBK1): 100% | remaining binding at 1 µM (ERK2): 100% | remaining binding at 1 µM (FLT4): 100% | remaining binding at 1 µM (SRC): 99% | remaining binding at 1 µM (ERK5): 100% | remaining binding at 1 µM (WNK1): 100% | remaining binding at 1 µM (GAK): 89% | remaining binding at 1 µM (PIK3CA(H1047Y)): 96% | remaining binding at 1 µM (EGFR(S752-I759del)): 97% | remaining binding at 1 µM (YES): 95% | remaining binding at 1 µM (PIK3CA(E545K)): 87% | remaining binding at 1 µM (PKAC-beta): 88% | remaining binding at 1 µM (KIT(D816V)): 89%
